Values joined by “and” are separate entries in the source; they are usually repeats but may differ in a detail not shown here. Equal entries are not always repeated.
Tests used:
[1] = biological target: rat brain or human brain dopamine D2 receptor; conditions: read-out: affinity (dissociation constant) of dopamine at the high-affinity state of D2; cited from earlier work
HERG channel receptor = biological target: T1, HERG channel receptor (Rattus norvegicus, UniProt O08962); assay: Competitive binding at HERG channel ([3H]dofetilide)
T1 sequence (O08962 1-1163): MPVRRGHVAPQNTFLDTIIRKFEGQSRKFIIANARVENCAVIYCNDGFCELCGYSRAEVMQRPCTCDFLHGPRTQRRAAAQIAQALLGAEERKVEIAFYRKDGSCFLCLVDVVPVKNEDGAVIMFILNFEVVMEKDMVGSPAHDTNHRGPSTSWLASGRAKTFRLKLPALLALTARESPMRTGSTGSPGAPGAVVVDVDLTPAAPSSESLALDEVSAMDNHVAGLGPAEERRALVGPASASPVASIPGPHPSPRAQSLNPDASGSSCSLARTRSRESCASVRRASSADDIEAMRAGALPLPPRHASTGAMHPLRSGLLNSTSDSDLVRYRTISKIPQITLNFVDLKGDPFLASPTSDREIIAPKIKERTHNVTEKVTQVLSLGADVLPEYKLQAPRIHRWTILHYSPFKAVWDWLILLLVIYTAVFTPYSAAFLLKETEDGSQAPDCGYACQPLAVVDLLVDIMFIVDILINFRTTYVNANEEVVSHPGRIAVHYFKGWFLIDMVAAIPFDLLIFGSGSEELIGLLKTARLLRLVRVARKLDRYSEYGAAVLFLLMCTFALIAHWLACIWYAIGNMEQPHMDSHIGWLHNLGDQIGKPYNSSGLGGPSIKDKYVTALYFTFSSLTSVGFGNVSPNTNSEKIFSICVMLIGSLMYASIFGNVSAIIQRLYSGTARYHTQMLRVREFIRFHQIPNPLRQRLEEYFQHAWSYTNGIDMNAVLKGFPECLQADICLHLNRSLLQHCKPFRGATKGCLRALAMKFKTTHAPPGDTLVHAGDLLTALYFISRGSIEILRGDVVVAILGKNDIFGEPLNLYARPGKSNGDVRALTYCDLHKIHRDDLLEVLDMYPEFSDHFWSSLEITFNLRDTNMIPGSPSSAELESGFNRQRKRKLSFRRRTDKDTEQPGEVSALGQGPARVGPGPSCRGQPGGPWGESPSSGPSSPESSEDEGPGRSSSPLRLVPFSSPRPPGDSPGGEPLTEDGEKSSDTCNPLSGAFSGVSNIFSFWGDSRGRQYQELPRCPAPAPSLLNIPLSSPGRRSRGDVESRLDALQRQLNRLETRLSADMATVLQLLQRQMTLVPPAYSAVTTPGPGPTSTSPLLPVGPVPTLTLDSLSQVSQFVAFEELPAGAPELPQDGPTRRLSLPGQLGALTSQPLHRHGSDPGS
Experimental: (§2) The competition between a compound and a [^3H]ligand for binding at the various receptors was done as follows. Each incubation tube (12×75 mm glass) received, in the following order, 0.5 ml buffer (50 mM Tris-HCl, pH 7.4 at 20° C., 1 mM EDTA, 5 mM KCl, 120 mM NaCl, 1.5 mM CaCl2, 4 mM MgCl2) containing a range of drug concentrations (final concentrations of 0.01 nM to 1,000 nM) or an excess of a second drug in order to define nonspecific binding, followed by the addition of 0.25 ml [^3H]ligand, and 0.25 ml of homogenized tissue suspension. […] After filtering the incubate, the filter mat was rinsed with buffer for 15 s (7.5 ml buffer). The filters were pushed out and placed in scintillation minivials (Packard Instruments, Chicago, Ill.).

[2] = biological target: T2, alpha-2-adrenoceptor (cloned in Sf9 cells) (Homo sapiens, UniProt P08913); assay: Competitive binding at alpha-2-adrenoceptor ([3H]yohimbine); conditions: read-out: dissociation constant at alpha-2-adrenoceptor
T2 construct: purchased Research Biochemicals International (Natick, Mass.); host or cells: Sf9 cells
T2 sequence (P08913 1-465): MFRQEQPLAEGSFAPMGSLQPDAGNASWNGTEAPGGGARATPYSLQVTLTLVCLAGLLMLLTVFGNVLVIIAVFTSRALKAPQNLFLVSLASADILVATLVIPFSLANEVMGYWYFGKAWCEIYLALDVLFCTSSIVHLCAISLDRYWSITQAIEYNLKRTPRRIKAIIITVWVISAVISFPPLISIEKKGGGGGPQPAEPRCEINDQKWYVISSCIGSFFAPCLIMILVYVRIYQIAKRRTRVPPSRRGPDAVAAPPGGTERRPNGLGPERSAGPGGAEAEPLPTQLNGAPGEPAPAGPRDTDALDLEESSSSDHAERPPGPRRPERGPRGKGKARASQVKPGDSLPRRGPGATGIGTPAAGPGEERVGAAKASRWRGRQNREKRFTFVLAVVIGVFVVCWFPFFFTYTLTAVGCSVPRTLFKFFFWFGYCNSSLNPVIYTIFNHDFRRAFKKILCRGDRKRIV
Experimental: (§1) Human dopamine D1 receptors (in Sf9 cells or COS cells), human dopamine D2Long receptors (in Sf9 cells or CHO cells), human alpha-adrenoceptor-2A receptors, and human muscarinic M1 receptors, all expressed in Sf9 cells, were purchased from Research Biochemicals International (Natick, Mass.). The frozen membranes containing the receptors were directly suspended at approximately 100 μg protein/ml and the cell suspension was homogenized for 5 s (Polytron, setting 5) without any further washing.

[3] = biological target: T3, cloned dopamine D2 receptor (Homo sapiens, UniProt P14416); assay: Dissociation from the cloned dopamine D2 receptor; assay type: binding
T3 construct: purchased Research Biochemicals International (Natick, Mass.); host or cells: Sf9 cells or CHO cells
T3 sequence (P14416 whole entry): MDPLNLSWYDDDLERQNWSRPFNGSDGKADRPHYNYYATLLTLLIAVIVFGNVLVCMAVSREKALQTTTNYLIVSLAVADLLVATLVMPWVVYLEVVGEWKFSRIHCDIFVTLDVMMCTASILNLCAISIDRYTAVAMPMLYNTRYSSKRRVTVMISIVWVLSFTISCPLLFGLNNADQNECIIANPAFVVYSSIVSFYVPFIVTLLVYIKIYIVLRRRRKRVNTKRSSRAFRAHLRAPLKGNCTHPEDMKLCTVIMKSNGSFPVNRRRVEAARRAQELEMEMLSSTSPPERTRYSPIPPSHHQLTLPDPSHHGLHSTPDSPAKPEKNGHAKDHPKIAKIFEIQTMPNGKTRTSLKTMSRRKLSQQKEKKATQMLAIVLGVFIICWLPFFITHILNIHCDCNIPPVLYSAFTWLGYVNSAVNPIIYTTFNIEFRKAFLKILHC

[4] = biological target: T4, dopamine D1 receptor (rat striatal tissue) (Rattus norvegicus, UniProt P18901); assay: Competitive binding at dopamine D1 receptor ([3H]SCH23390), rat tissue; conditions: read-out: dissociation constant at dopamine D1 receptor
T4 construct: tissue Pel-Freez (Rogers, Ark.); host or cells: rat brain striatum
T4 sequence (P18901 whole entry): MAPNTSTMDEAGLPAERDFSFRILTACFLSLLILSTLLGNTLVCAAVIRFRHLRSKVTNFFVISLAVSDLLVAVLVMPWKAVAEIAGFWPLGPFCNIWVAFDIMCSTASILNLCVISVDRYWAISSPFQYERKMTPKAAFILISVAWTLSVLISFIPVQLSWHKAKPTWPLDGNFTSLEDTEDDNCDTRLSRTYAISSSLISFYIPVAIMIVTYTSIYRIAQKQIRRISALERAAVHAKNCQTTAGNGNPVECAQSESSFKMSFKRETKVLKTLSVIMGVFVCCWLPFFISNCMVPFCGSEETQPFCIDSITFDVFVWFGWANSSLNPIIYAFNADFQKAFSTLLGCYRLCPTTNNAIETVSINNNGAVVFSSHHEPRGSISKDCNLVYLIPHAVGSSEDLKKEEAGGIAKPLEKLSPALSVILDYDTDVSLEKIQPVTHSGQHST
Experimental: (§3) Rat brains were purchased from Pel-Freez (Rogers, Ark.) and stored at −70° C. […] Before each experiment, the striatum or the frontal cerebral cortex (free of myelin) was dissected from the partly thawed rat brain on a glass plate on a bed of dry ice. The dissected tissue was suspended in buffer (50 mM Tris-HCl, pH 7.4 at 20° C., 1 mM EDTA, 5 mM KCl, 120 mM NaCl, 1.5 mM CaCl2, 4 mM MgCl2) at 4 mg original wet weight per ml suspension.
as §2
(§4) Competition at the muscarinic receptors was done using either the cloned M1 receptors or the rat frontal cortex, 0.6 nM [^3H]QNB, and using 200 nM atropine to define nonspecific binding. […]

catalepsy = assay: Catalepsy (horizontal bar); assay type: in vivo; conditions: up to 60 mg/kg in mice
From the text: The front paws of the animal were placed on a horizontal bar. Control animals quickly moved off the bar. Cataleptic animals held on to the bar for up to 15 seconds or more.

[5] = biological target: sigma receptor (rat striatal tissue) (Rattus norvegicus, UniProt Q9R0C9); assay: biochemical
sigma receptor (rat striatal tissue), sequence (Q9R0C9 whole entry): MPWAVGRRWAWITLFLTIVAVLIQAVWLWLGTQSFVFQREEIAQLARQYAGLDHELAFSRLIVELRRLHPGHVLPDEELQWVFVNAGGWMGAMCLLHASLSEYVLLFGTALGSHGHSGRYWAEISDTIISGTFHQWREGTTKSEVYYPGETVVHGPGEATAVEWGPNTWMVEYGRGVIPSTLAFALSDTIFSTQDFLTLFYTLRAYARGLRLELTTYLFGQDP
Experimental: as §3, §2, §4

[6] = biological target: muscarinic cholinergic receptor (rat cortex tissue); assay: Competitive binding at muscarinic receptor ([3H]QNB); conditions: read-out: dissociation constant at muscarinic cholinergic receptor
Experimental: as §3, §2, §4

[7] = biological target: T5, serotonin-1A receptor (rat frontal cortex tissue) (Rattus norvegicus, UniProt P19327); assay: Competitive binding at serotonin-1A receptor ([3H]8-OH-DPAT), rat tissue; conditions: read-out: dissociation constant at serotonin-1A receptor
T5 construct: tissue Pel-Freez (Rogers, Ark.); host or cells: rat frontal cerebral cortex
T5 sequence (P19327 1-422): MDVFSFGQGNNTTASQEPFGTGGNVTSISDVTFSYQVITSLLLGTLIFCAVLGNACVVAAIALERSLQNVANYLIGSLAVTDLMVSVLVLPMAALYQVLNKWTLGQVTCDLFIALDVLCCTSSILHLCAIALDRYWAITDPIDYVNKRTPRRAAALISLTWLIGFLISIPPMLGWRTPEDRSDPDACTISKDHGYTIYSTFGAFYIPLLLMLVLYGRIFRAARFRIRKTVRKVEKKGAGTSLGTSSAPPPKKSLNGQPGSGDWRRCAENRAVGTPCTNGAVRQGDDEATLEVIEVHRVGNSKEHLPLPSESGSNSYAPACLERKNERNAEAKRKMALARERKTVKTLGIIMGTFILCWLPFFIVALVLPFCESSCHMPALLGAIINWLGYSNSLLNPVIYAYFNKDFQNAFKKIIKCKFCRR
Experimental: as §3, §2, §4

dopamine D2 receptors = biological target: T6, dopamine D2 receptors (Rattus norvegicus, UniProt P61169); assay: In vivo D2 occupancy ([3H]raclopride, striatum); conditions: for receptor occupancy at 20 mg/kg: po, oral 20 mg/kg, rats
T6 construct: from tissue; host or cells: striatum of living Sprague-Dawley rats
T6 sequence (P61169 whole entry): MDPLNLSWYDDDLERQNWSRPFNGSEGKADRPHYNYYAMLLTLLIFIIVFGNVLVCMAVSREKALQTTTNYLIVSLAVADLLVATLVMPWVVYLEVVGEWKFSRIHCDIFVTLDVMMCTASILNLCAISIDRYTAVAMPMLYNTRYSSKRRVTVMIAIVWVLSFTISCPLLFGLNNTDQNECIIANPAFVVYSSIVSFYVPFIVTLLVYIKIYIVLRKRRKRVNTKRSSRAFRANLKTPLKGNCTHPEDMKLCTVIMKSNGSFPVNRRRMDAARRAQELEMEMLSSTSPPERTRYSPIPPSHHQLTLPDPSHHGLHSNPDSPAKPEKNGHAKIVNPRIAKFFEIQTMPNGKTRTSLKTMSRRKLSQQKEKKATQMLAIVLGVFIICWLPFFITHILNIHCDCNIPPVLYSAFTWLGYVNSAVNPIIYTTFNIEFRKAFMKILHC
Experimental: Sprague-Dawley rats (each 250 g) received an oral dose of test compound of 20 mg/kg by gavage, using 2 ml per gavage feeding. The test compound solution was prepared as follows: 20 mg of test compound was added to 8 ml saline (0.9% NaCl), followed by the addition of a few drops of 2% lactic acid and back titration of the suspension to pH 5 using 0.1 N NaOH. A fine particulate suspension was used for gavage. Each rat received 2 ml of the suspension over a period of 5 minutes. […] The D2 occupancy in the striatum was calculated.

[8] = biological target: alpha-1-adrenoceptor (rat cortex); assay: Competitive binding at alpha-1-adrenoceptor ([3H]prazosin); conditions: read-out: dissociation constant at alpha-1-adrenoceptor
Experimental: as §3, §2, §4

[9] = biological target: T7, cloned dopamine human D2Long receptor (Homo sapiens, UniProt P14416); assay: Competitive binding at cloned dopamine D2 receptor ([3H]raclopride); conditions: 2 nM [3H]raclopride, read-out: dissociation constant, K, at D2 receptor
T7 construct: purchased Research Biochemicals International (Natick, Mass.); host or cells: Sf9 cells or CHO cells
T7 sequence (P14416 whole entry): as the sequence (P14416 whole entry) above
Experimental: as §1

[10] = biological target: T8, histamine H1 receptor (rat cortex) (Rattus norvegicus, UniProt P31390); assay: Competitive binding at histamine H1 receptor; conditions: read-out: dissociation constant at histamine H1 receptor
T8 construct: tissue Pel-Freez (Rogers, Ark.); host or cells: rat cortex
T8 sequence (P31390 whole entry): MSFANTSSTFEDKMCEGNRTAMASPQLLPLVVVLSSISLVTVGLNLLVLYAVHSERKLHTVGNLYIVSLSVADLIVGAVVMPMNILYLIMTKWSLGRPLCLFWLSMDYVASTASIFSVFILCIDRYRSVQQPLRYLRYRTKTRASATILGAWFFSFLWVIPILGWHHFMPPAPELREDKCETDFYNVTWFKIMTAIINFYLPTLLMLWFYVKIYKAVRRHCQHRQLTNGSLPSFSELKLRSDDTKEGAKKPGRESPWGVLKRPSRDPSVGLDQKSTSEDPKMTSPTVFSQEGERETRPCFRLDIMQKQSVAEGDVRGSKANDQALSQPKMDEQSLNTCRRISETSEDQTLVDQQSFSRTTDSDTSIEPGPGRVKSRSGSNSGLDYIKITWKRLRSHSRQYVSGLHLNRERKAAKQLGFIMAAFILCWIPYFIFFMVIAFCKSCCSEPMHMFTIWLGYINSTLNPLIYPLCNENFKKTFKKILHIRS
Experimental: as §2

SMILES | Kd [1] | Ki (HERG channel receptor) | Ki [2] | melting point | time at which dissociation from cloned D2 receptor was 50% completed [3] | Ki [4] | catalepsy (catalepsy) | Ki [5] | Ki [6] | Ki [7] | receptor occupancy at 20 mg/kg (dopamine D2 receptors; 30 min) | receptor occupancy at 20 mg/kg (dopamine D2 receptors; 1 hour) | receptor occupancy at 20 mg/kg (dopamine D2 receptors; 2 hour) | receptor occupancy at 20 mg/kg (dopamine D2 receptors; 3 hour) | receptor occupancy at 10 mg/kg (dopamine D2 receptors; sc, 10 mg/kg subcutaneous, after one hour, Sprague Dawley rats) | Ki [8] | Ki [9] | Ki [10]
NCCc1ccc(O)c(O)c1 [dopamine] | ~1.75 nM and 1.75 nM |  |  |  |  |  |  |  |  |  |  |  |  |  |  |  |  | 
COc1cccc(C(=O)CCCN2CCC(O)(c3ccc(Cl)cc3)CC2)c1 [Example 2(a), 4-[4-(4-chlorophenyl)-4-hydroxypiperidin-1-yl]-1-(3-methoxyphenyl)butan-1-one] |  | 2600 nM | 9500 nM | 127 to 129 °C | 23 s | 11000 nM | did not result in any catalepsy | 200 nM | 570 nM | 12000 nM | 39% | 63% | 24% | 28% | 61% | 1070 nM | 140 ± 8 nM | 1140 nM
COc1cccc(C(=O)CCCN2CCC(O)(c3ccccc3)CC2)c1 [Example 2(b), 4-[4-phenyl-4-hydroxypiperidin-1-yl]-1-(3-methoxyphenyl)butan-1-one, reference compound] |  |  |  |  |  |  |  |  |  |  |  |  |  |  |  |  | 660 nM | 

From US20100004289A1, “SUBSTITUTED BUTYROPHENONE DERIVATIVES” (priority 2005, published 2010)
